Test results taken from ChEMBL document CHEMBL5244229, “Thiazole-containing compounds as therapeutic targets for cancer therapy” (Eur J Med Chem, 2020).
In brackets after ≈: the same amount, converted by molar mass.

Experiments:
HEK293 = assay: Antiproliferative activity against human HEK293 cells; assay type: functional
HCT-116 [1] = assay: Antiproliferative activity against human HCT-116 cells assessed as reduction in cell viability; assay type: functional, cell-based
A549 = assay: Antiproliferative activity against human A549 cells; assay type: functional, cell-based
Colon cell line = assay: Cytotoxicity against human Colon cell line; assay type: functional, cell-based
[2] = target: Epidermal growth factor receptor (Homo sapiens, UniProt P00533); assay: Inhibition of EGFR (unknown origin)
HeLa = assay: Cytotoxicity against human HeLa cells; assay type: functional, cell-based
MCF7 [3] = assay: Cytotoxicity against human MCF7 cells; assay type: functional, cell-based
K562 = assay: Anticancer activity against human K562 cells; assay type: functional, cell-based
HepG2 [4] = assay: Cytotoxicity against human HepG2 cells; assay type: functional, cell-based
HepG2 [5] = assay: Antitumor activity against human HepG2 cells; assay type: functional, cell-based
HepG2 [6] = assay: Cytotoxicity against human HepG2 cells assessed as reduction in cell viability incubated for 24 hrs by WST-1 assay; assay type: functional, cell-based; conditions: HepG2, 24 h
[7] = system: Panel NCI-60 (60 carcinoma cell lines); assay: Antitumor activity against human Panel NCI-60 (60 carcinoma cell lines) cells; assay type: functional
MV4-11 = assay: Anticancer activity against human MV4-11 cells; assay type: functional, cell-based
HCT-116 [8] = assay: Anticancer activity against human HCT-116 cells; assay type: functional, cell-based
MCF7 [9] = assay: Anticancer activity against human MCF7 cells; assay type: functional, cell-based
SMMC-7721 = assay: Cytotoxicity against human SMMC-7721 cells; assay type: functional, cell-based
HepG2 [10] = assay: Cytotoxicity against human HepG2 cells assessed as reduction in cell viability measured after 48 hrs by MTS assay; assay type: functional, cell-based; conditions: HepG2, 48 h
HepG2 [11] = assay: Anticancer activity against human HepG2 cells; assay type: functional, cell-based
AGS = assay: Cytotoxicity against human AGS cells; assay type: functional, cell-based
SNU-638 = assay: Cytotoxicity against human SNU-638 cells; assay type: functional, cell-based
Hep 3B2 = assay: Cytotoxicity against human Hep3B cells; assay type: functional, cell-based
[12] = Cytotoxicity against human SNU-216 cells; assay type: functional, cell-based
MKN-74 = assay: Cytotoxicity against human MKN-74 cells; assay type: functional, cell-based
SK-HEP1 = assay: Cytotoxicity against human SK-HEP1 cells; assay type: functional, cell-based
[13] = target: Vascular endothelial growth factor receptor 2 (Homo sapiens) (UniProt P35968); assay: Inhibition of VEGFR2 (unknown origin) at 20 uM using 5-FAM-KKKKEEIYFFF-CONH2 as substrate incubated for 1 hr in presence of ATP by kinase glo-assay relative to control
MCF7 [14] = assay: Antitumor activity against human MCF7 cells; assay type: functional, cell-based

Epidermal growth factor receptor, sequence (P00533 whole entry): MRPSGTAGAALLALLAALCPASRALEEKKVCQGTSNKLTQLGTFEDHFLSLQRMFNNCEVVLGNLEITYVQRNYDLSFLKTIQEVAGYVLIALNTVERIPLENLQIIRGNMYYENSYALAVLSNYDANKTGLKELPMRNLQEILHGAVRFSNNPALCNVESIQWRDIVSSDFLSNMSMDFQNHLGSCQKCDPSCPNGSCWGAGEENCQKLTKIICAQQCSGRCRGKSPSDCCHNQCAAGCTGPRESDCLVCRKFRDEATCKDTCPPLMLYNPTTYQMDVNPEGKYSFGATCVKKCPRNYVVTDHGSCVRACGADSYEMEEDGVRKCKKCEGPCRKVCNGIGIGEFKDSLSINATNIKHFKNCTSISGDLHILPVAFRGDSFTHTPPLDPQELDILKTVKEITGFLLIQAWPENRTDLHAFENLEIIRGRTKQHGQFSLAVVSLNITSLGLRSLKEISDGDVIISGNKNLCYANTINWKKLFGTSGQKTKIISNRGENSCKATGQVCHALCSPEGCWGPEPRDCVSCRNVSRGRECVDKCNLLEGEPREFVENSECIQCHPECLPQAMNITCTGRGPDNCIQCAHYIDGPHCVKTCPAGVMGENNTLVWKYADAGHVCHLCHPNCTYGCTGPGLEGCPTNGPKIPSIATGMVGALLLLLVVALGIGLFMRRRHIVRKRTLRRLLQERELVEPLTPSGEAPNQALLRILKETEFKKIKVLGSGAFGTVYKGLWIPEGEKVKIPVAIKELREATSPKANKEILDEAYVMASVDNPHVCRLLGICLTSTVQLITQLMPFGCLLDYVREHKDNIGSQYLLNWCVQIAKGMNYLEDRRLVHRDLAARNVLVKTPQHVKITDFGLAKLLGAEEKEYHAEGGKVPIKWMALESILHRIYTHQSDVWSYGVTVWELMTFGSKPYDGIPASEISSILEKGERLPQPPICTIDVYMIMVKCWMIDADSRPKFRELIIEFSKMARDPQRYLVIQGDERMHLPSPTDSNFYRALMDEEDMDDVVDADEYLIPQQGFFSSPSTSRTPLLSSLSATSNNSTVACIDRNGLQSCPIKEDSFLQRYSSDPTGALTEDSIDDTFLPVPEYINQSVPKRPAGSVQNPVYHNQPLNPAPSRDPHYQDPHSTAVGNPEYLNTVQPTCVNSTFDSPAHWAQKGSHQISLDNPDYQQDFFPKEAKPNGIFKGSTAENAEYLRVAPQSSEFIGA
Vascular endothelial growth factor receptor 2 (Homo sapiens), sequence (P35968 whole entry): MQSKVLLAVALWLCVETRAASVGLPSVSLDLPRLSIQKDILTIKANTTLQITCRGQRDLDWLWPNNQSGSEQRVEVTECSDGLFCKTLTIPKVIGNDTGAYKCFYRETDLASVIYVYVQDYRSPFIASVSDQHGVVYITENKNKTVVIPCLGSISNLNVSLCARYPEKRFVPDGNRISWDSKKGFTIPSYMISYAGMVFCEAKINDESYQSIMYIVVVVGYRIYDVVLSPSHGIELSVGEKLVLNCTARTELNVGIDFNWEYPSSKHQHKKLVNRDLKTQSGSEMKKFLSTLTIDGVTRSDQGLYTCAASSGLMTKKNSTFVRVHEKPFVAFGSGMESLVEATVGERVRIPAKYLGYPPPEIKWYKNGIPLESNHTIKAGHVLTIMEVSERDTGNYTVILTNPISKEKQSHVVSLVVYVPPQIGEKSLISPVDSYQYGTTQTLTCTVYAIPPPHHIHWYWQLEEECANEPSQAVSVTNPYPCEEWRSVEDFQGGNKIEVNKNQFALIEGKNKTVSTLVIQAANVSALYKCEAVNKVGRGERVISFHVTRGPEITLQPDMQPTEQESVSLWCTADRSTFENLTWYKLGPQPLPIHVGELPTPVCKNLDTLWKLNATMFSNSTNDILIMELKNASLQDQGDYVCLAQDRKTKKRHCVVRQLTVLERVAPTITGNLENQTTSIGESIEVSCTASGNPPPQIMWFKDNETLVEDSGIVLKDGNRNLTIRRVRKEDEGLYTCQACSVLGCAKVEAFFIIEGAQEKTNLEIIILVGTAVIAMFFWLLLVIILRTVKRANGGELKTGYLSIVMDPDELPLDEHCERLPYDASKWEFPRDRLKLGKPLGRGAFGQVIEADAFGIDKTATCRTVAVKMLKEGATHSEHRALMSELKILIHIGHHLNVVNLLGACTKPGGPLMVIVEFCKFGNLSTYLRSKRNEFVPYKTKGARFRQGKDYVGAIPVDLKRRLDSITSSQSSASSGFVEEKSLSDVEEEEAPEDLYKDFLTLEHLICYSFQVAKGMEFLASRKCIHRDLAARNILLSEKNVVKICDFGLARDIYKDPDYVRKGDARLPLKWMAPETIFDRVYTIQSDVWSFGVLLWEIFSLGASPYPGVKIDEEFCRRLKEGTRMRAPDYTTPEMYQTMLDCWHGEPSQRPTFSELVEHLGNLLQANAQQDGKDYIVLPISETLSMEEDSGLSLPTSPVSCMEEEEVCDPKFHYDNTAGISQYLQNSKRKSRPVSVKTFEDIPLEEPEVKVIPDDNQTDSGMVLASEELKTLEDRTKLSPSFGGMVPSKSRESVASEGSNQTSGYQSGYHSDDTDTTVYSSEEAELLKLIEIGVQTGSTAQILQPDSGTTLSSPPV

## CCCCCCCC(=O)SCC/C=C/[C@@H]1CC(=O)NCc2nc(cs2)C2=N[C@@](C)(CS2)C(=O)N[C@@H](c2ccccc2)C(=O)O1
HEK293
  GI50: > 100000 nM
HCT-116 [1]
  IC50: 390 nM
A549
  GI50: 1460 nM

## O=C1NC(=O)/C(=C/c2ccccc2Cl)S1
Colon cell line
  IC: 10 µg/mL

## COc1cc(C(=O)c2csc(-c3ccc4[nH]ccc4c3)n2)cc(OC)c1OC
[2]
  IC50: 8 nM

## CC1=C(C(=O)Nc2nc(-c3ccccc3)cs2)C(c2ccc(Cl)cc2)C(C(=O)Nc2nc(-c3ccccc3)cs2)=C(C)N1
HeLa
  IC50: 2 nM

## O=C(NC1=NC2C(=O)NN=C(c3ccc(Br)cc3)C2S1)Nc1ccc(Cl)cc1 (stereo unspecified)
[2]
  IC50: 80 nM

## O=S(=O)(O)c1ccc(/N=N/C(=N\c2nc(-c3ccccc3)cs2)c2cc3ccccc3nc2Cl)cc1
MCF7 [3]
  IC50: 16000 nM
K562
  IC50: 13000 nM

## Cc1ccc(S(=O)(=O)C(Cl)(Cl)c2nc(C)sc2[N+](=O)[O-])cc1
HepG2 [4]
  CC50: < 2500 nM
Colon cell line; Homo sapiens, Colon cell line
  CC50: 1000 nM

## CCOC(=O)c1nn(-c2ccc(Cl)cc2Cl)/c(=N/NC(=O)c2sc(-c3ccccc3)nc2C)s1
HepG2 [5]
  IC50: 820 nM

## COc1ccc(/N=N/c2sc(N/N=C(/C)c3sc(N)nc3C)nc2C)cc1
HepG2 [6]
  IC50: 500 nM

## C/C(=N/Nc1nc(C)c(/N=N/c2ccc(Cl)cc2)s1)c1sc(N)nc1C
HepG2 [6]
  IC50: 520 nM

## Cn1c(-c2csc(-c3c[nH]c4ncccc34)n2)cc2cc(Br)cnc21
[7]
  GI50: 810 nM

## COc1ccc(S(=O)(=O)Nc2ccc(-c3csc(N/N=C/c4ccc(N(CCCl)CCCl)cc4)n3)cc2)cc1
MV4-11
  IC50: 2170 nM
HCT-116 [8]
  IC50: 3.02 µg/mL

## CC/C(=C(\c1ccccc1)c1ccc(OCCN(C)C)cc1)c1ccccc1 [TAMOXIFEN]
MCF7 [9]
  IC50: 3530 nM

## Cc1nc(N2N=C(c3cccs3)CC2c2ccc(C3CC(c4cccs4)=NN3c3nc(C)c(/N=N/c4ccc([N+](=O)[O-])cc4)s3)cc2)sc1/N=N/c1ccc([N+](=O)[O-])cc1 (stereo unspecified)
SMMC-7721
  IC50: 3000 nM
HCT-116 [8]
  IC50: 1370 nM
K562
  IC50: 20 nM
HepG2 [10]
  IC50: 1370 nM
HepG2 [11]
  IC50: 150 nM

## Clc1nccc2c(-c3csc(-c4c[nH]c5ccc(Br)cc45)n3)c[nH]c12
[7]
  GI50: 930 nM

## C/C=C1\NC(=O)[C@H]([C@@H](C)O)NC(=O)c2csc(n2)-c2ccc(-c3nc(-c4nc(C(=O)N/C(=C/C)C(=O)NC[C@H](C)O)cs4)cs3)nc2-c2csc(n2)[C@H]([C@@H](C)O)NC(=O)c2csc(n2)[C@H](C(C)C)NC(=O)c2csc1n2
HepG2 [4]
  IC50: 910 nM
AGS
  IC50: 500 nM
SNU-638
  IC50: 410 nM
Hep 3B2
  IC50: 940 nM
[12]
  IC50: 440 nM
MKN-74
  IC50: 7300 nM
SK-HEP1
  IC50: 830 nM

## C/C(=N/N=c1/[nH]c(C)c(/N=N/c2ccccc2)s1)[C@H]1CC[C@H]2[C@@H]3CCC4=CC(=O)CC[C@]4(C)[C@H]3CC[C@]12C
MCF7 [9]
  IC50: 8870 nM

## COc1ccc(/C=C(/C#N)c2nc(-c3cc4ccccc4oc3=O)cs2)cc1OC
HepG2 [10]
  IC50: 2890 nM

## O=C(Cc1csc2nc(-c3ccccc3)cn12)Nc1ccc(N2CCOCC2)nc1
[13]
  inhibition: 3.76%

## FC(F)(F)c1ccc(/C=N/Nc2nc(-c3ccc(Cl)cc3Cl)cs2)cc1
[2]
  IC50: 5480 nM

## Cc1nc(C(Cl)(Cl)S(=O)(=O)c2ccc(Cl)cc2)c([N+](=O)[O-])s1
HepG2 [4]
  CC50: < 2500 nM

## CC(=O)Nc1ccc(NC(=O)/C(C#N)=C2\SC=C(C)N2c2ccccc2)cc1
MCF7 [3]
  IC50: 6.9 µg/mL

## O=C1N/C(=N/c2ccc(-c3nc4ccccc4s3)cc2)S/C1=C/c1ccc([N+](=O)[O-])cc1
HepG2 [5]
  IC50: 36 nM
MCF7 [14]
  IC50: 48 nM

## C/C(=N/Nc1nc(C)c(/N=N/c2ccccc2)s1)c1nnn(-c2ccccc2)c1C
HepG2 [5]
  IC50: 3410 nM
MCF7 [14]
  IC50: 1120 nM

## O=[N+]([O-])c1ccc(-c2nn(-c3nc(-c4ccc(Br)cc4)cs3)cc2/C=N/c2nc[nH]n2)cc1
MCF7 [9]
  GI50: > 80 µg/mL
HeLa
  GI50: 1.2 µg/mL (≈ 2.3 µM)

## C=C(NC(=O)C(=C)NC(=O)c1csc(C2=N[C@@H]3c4csc(n4)[C@H]4NC(=O)c5csc(n5)C([C@](C)(O)[C@@H](C)O)NC(=O)[C@H]5CSC(=N5)/C(=C/C)NC(=O)C([C@@H](C)O)NC(=O)c5csc(n5)[C@]3(CC2)NC(=O)[C@H](C)NC(=O)C(=C)NC(=O)C(=C)NC(=O)[C@H](C(C)C)N[C@H]2C=Cc3c([C@H](C)O)cc(nc3[C@H]2O)C(=O)O[C@@H]4C)n1)C(N)=O (stereo partly specified)
HepG2 [4]
  IC50: 1300 nM
AGS
  IC50: 710 nM
SNU-638
  IC50: 910 nM
Hep 3B2
  IC50: 1900 nM
[12]
  IC50: 750 nM
MKN-74
  IC50: 6210 nM
SK-HEP1
  IC50: 1600 nM

## CCOC(=O)c1csc(NC(=S)Nc2ccc(Cl)cc2)n1
[2]
  IC50: 10100 nM
